The record followed here is patent US20250000088A1, “ANT CONTROL AGENT AND ANT CONTROL METHOD” (Shin-Etsu Chemical Co., Ltd., priority 2021, published 2025).

The subject of the assay is worker ants of Myrmica ruginodis. Put plainly: Bioassay for selection of odor source (two arms of a four-arm olfactometer). The class given is in vivo. The settings on record: 10 ants per group, 3 repetitions, max 5 min. On the procedure:
Bioassays were performed using the worker ants of Myrmica ruginodis which had been collected in Niigata Prefecture in Japan. The bioassays were performed using only two arms of a four-arm olfactometer (classic 4-Choice Arena Orfactometer, Sigma Scientific LLC) as shown in FIG. 5. Pure air filled in a 47 L gas cylinder was used as an air source, and the air flow rate was adjusted by a regulator. […] The ants were used as each group consisting of 10 ants, the test was started at the time of entering the ants from the inlet 1, and the selection for the odor source was made for a maximum of 5 minutes per repetition. The choice of odor source was determined by counting the number of ants in the insect separation chamber 2 at the end of the test. Five minutes after the start of the experiment, and when all 10 ants selected any one of odor sources, the results were recorded, and the tested ants were removed. Then three repetitions (using a total of 30 ants) of experiments were performed. Each cotton swab serving as an odor source was installed in each odor source installation adapter 3, and was replaced with a new one at every repetition. The glassware was washed after each repetition, and the odor source installation adapter for installing an odor source in the olfactometer was selected randomly. […]

For `CCCCCC(=O)CC` [3-octanone], the “number of ants gathering at the odor source (choice of odor source)” value (cotton swab containing 1.1 mg of mixture (3-octanone diluted with distilled water with Triton X-100) vs distilled water control, FIG. 2) is on record as “gathered in the alarm pheromone compound treatment section” and the “number of ants gathering at the odor source (choice of odor source)” value (cotton swab containing 7.6 mg of mixture (3-octanone diluted in distilled water with Triton X-100) vs distilled water control, FIG. 1) is “gathered in the control section, while avoiding the alarm pheromone compound treatment section”.
